From paper PMC9889419 (Pharmacological Reports, 2022)
Like-named read-outs stand apart in the source and are kept apart here.

Columns and labels:
rats [1] = type: in vivo; settings: ip
mice [2] = experiment: iv pentylenetetrazole (PTZ) seizure threshold test; settings: compound ip
Procedure: They were also evaluated in the iv pentylenetetrazole (PTZ) test.
Data are expressed as the mean PTZ dose ± SEM for n = 10 that induced clonus or twitch in mice exposed to a particular dose of the test compound

rats [3] = settings: ip
Procedure: (§3) The assays were carried out within the Epilepsy Therapy Screening Program (ETSP, previously known as the Anticonvulsant Screening Program, ASP), Epilepsy Branch, National Institute of Neurological and Communicative Disorders and Stroke, National Institutes of Health in Rockville, MD, USA [23].

[4] = system: organotypic hippocampal slice cultures; experiment: Neuroprotection primary screen, excitotoxin NMDA; type: cell-based; settings: NMDA 10 µM; 10 and 100 µM compound
Source text: Gompound 1 : ADD Number: ItSot+ Batct: lE- Date Started:
Compound 2 : ADD Number: Froso Batct: le Date Completed i l|26-M ar -20 1 O […]
Excitotoxin: lNmoa lnsult Duration: la Uouo Solvent:
Primary Screen Results: ffi […]
Al lruuoa rolrr,| A2lr'rrr,tOa r Olrrr,t * --.- A3 lr'rnroa r oprvr + lsaoot+ t oplrl+aesogo iopM
BZ lr.rrr,ron ropr,t , -_-_-- 83 lluoa topt',r * jffi 1 4 t oopM.€sroso 1 oolrM la+eota tooptu*aasoeo roffi […]
The 'Primary screen Experiment" is a qualitative assessment of the ability of a compound to prevent excrtotoxic cell death. organotypic hippocampal slice cultures are treated *ltn r.i-."iivr-o-"spartate (NMDA) or kainic acad (KA) to induce neuronal cell death' Propidium iodide (Pl), a membrane-imper.eant cornpouna, is included in all wells of the culture plate.
Dying cells have compromised *]lT^"Toj*::, ttr. er rnJy oin "" into the cell, intercatate with DNA and fluoresce. Thus, the intensity of the Pl fluorescence is proportional to the amount of cell death in lhe individual itices. ttippocampat slice cullures are treated with the excitotoxin alone, or *i er. inoi"ui"o above, with the excitotoxin and either one -qf]bar-a Investigalional compounds at the concentrations indicated. lf neuroprotectron occurs as a consequence of the added […]
(§1) been treated with the excitotoxin alone.
(§2) (1 picture or pasted object on this page, not shown here)

rats [5] = experiment: Rotarod / TOX (neurotoxicity); settings: rats, ip
Procedure: as §3
(§4) The obtained compounds were screened for antiseizure activity and neurotoxicity in vivo within the Epilepsy Therapy Screening Program (ETSP, previously known as the Anticonvulsant Screening Program, ASP), Epilepsy Branch, National Institute of Neurological and Communicative Disorders and Stroke, National Institutes of Health in Rockville, MD, USA [23].

rats [6] = type: in vivo; settings: ip; remark: listed apart in the source
[7] = system: organotypic hippocampal slice cultures; experiment: Neuroprotection primary screen, excitotoxin kainic acid; type: cell-based; settings: kainic acid 20 µM; 10 and 100 µM compound
Procedure: Compound 2 : ADD t{umber, b890s0 Batch: lB- Date Compteted. Ect\,t""201 0 […]
Excilotoxin: llGinic ncia Insult Duration: l+ Hours Solvent: […]
Ai lxn zopr.,r aZ lxa zopr,r Ae lre zoprta
Bz lr<n zopn er ]ra zopr',t l:+aot a r ooprt/|*aa9o8o l oopM lgaeota t oot,tr,t*gB9o8o t oopM […]
The "Primary screen Experiment" is a qualitative assessment of the ability of a compound to prevent excitotoxic cell dearh. organotypic hippocampal slice clltures are treated with N-methyl-D-aipartate lNuoa; o; kainic acid (KA) to induce neuronal cell death. Propidium iodide (Pl), a membrane-impermeant compound, is included in all welts of the culture plate.
Dying cells have compromised cell membranes, thus Pl may diffuse into the cell, intercalate with DNA and ftuoresce. Thus, the intensity of the Pl fluorescence is proportional to the amount of cell death in the individual slices. Hippocampal slice cultures are treated with the excitotoxin alone, or where indicated above, with the excitotoxin and either one eltu/o investigational compounds at the concentrations indicated. lf neuroprotection occurs as a consequence of the added […]
as §1, §2

mice [8] = experiment: 6 Hz test; type: in vivo; settings: 32 mA, mice, ip
Procedure: The 6 Hz model test was carried out according to the protocol originally described by Brown et al. [54] and more recently by Barton et al. [55] and Kamiński et al. [47] and is a model of pharmacoresistant epilepsy [56].

mice [9] = settings: mice, ip, […]
Procedure: as §3, §4

rats [10] = experiment: Acute toxicity (ETSP screening); type: in vivo; settings: ip, 0.5 h
rats [11] = experiment: Maximal electroshock seizure (MES) test; type: in vivo
mice [12] = experiment: Subcutaneous pentylenetetrazole seizure test (ScPTZ, SCMET); type: in vivo; settings: mice, ip, […]
Procedure: as §3

mice [13] = experiment: Formalin test (ETSP, area under the curve); type: in vivo; settings: 20.0 mg/kg, ip
mice [14] = experiment: Rotarod test (neurotoxicity); type: in vivo; settings: mice, ip, […];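 further: in vivo neurotoxicity screen run within the NIH Epilepsy Therapy Screening Program (ETSP, formerly Anticonvulsant Screening Program)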
Procedure: as §3, §4

CC[C@H](CO)NCCOc1c(C)cccc1Cl [Compound 5, R-(-)-2-((2-(2-chloro-6-methylphenoxy)ethyl)amino)butan-1-ol] was tested, and the “Hippocampal kindling TPE” value (rats [1]) was 0.75 h, the “Hippocampal kindling seizure score by Racine (0–5), Rat1” value (rats [1]; at 30 mg/kg) was 4 and the “Hippocampal kindling seizure score by Racine (0–5), Rat2” value (rats [1]; at 30 mg/kg) was 0. The “influence on seizure threshold” value (mice [2]) was “effect was not shown”, the “LTG-resistant amygdala seizures: rats with toxicity” value (rats [3]; 30 mg/kg) was 3/4 and the “LTG-resistant amygdala seizures: seizure score by Racine (0–5)” value (rats [3]; 30 mg/kg) was 3.5. For the same compound, the “LTG-resistant amygdala seizures: rats with toxicity” value (rats [3]; 50 mg/kg) was 5/5, the “LTG-resistant amygdala seizures: seizure score by Racine (0–5)” value (rats [3]; 50 mg/kg) was 2.2 and the “Test Result (neuroprotection)” value [4] was “No Neuroprotection”. The “Rotarod TPE” value (rats [5]) was 0.25 h, the “Rotarod TD50” value (rats [5]; […]) was greater than 30 mg/kg and the “Pilocarpine-induced status epilepticus prevention: active at” value (rats [6]) was 50 mg/kg. For the same compound, the Prot./Tested (rats [6]; 25 mg/kg, 0 h post first Stage III seizure) was 2/8, the “Pilocarpine test: rats died” value (rats [6]; at 100 mg/kg, […]) was 2/2 and the “Test Result (neuroprotection)” value [7] was “No Neuroprotection”. The “6 Hz ED50” value (mice [8]; […]) was 33.1 (29–37.8) mg/kg, the “6 Hz TPE” value (mice [8]) was 0.25 h and the “MES ED50” value (mice [9]) was 18.20 (16.60–20.00) mg/kg. For the same compound, the “Acute toxicity: minimal motor impairment at” value (rats [10]) was 50 mg/kg, the “MES PI” value (rats [11]; ip) was greater than 9.12 and the “MES TPE” value (rats [11]; ip) was 0.25 h. The “MES ED50” value (rats [11]; ip, […]) was 4.65 (2.94–6.88) mg/kg, the “MES TPE” value (rats [11]; po) was 0.5 h and the “SCMET ED50” value (mice [12]) was greater than 70 mg/kg. The “Area under the curve (I phase)” value (mice [13]) was 155.1 ± 44.2, the “Area under the curve (II phase)” value (mice [13]) was 496.7 ± 164.7 and the “Area under the curve, % of control (I phase)” value (mice [13]) was 78.7; t14 = 1.3050%. The “Area under the curve, % of control (II phase)” value (mice [13]) was 105.6; t14 = 0.3579%, the “Area under the curve (II phase)” value (mice [13]; listed as 354009) was 496.7 and the “Area under the curve, % of control (I phase)” value (mice [13]; listed as 354009) was 78.68%. For the same compound, the “Area under the curve, % of control (II phase)” value (mice [13]; listed as 354009) was 105.6% and the “Rotarod TD50” value (mice [14]) was 59.80 (43.80–74.20) mg/kg.
